{"source": "patent US20210045385A1", "about": "“PYRIDAZINONE-SUBSTITUTED KETOXIMES AS HERBICIDES” (FMC Corporation, priority 2018, published 2021)", "format_in_all_cases": "in vivo", "key": {"rice (Oryza sativa)": {"system": "rice (Oryza sativa)", "assay": "Test B flooded paddy test, visual plant response rating", "settings": "250 g ai/ha, Flood, applied to paddy water, 2-leaf stage, evaluated after 13 to 15 days", "outline": "(§1)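 Test pots are flooded 3 cm above the soil at treatment, and the test substance is introduced into this standing water. After keeping the flood level and growing plants, treated at the 2-leaf stage, for 13 to 15 days under glass, injury is assessed visually versus controls.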"}, "[1]": {"system": "sedge, umbrella (small-flower umbrella sedge, Cyperus difformis)", "assay": "Test B flooded paddy test, visual plant response rating", "settings": "250 g ai/ha, Flood, applied to paddy water, 2-leaf stage, evaluated after 13 to 15 days", "outline": "as §1"}, "[2]": {"system": "barnyardgrass (Echinochloa crus-galli)", "assay": "Test B flooded paddy test, visual plant response rating", "settings": "250 g ai/ha, Flood, applied to paddy water, 2-leaf stage, evaluated after 13 to 15 days", "outline": "as §1"}, "[3]": {"system": "ducksalad (Heteranhera limosa)", "assay": "Test B flooded paddy test, visual plant response rating", "settings": "250 g ai/ha, Flood, applied to paddy water, 2-leaf stage, evaluated after 13 to 15 days", "outline": "as §1"}, "[4]": {"system": "foxtail, giant (giant foxtail, Setaria faberii)", "assay": "Test A postemergence, visual plant response rating", "outline": "(§2)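 Greenhouse evaluation, approx. 10 days post-spray. Soil: loam + sand. Postemergence stage: 1–2 leaves, height 2–10 cm. Vehicle: non-phytotoxic solvent blend with surfactant. Score: visual injury on a 0 (no effect) to 100 (complete control) scale.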"}, "[5]": {"system": "galium (catchweed bedstraw, Galium aparine)", "assay": "Test A postemergence, visual plant response rating", "outline": "as §2"}, "[6]": {"system": "wheat (Triticum aestivum)", "assay": "Test A postemergence, visual plant response rating", "outline": "as §2"}, "[7]": {"system": "Italian ryegrass (Lolium multiflorum)", "assay": "Test A postemergence, visual plant response rating", "outline": "as §2"}, "[8]": {"system": "ragweed (common ragweed, Ambrosia elatior)", "assay": "Test A postemergence, visual plant response rating", "outline": "as §2"}, "[9]": {"system": "barnyardgrass (Echinochloa crus-galli)", "assay": "Test A postemergence, visual plant response rating", "outline": "as §2"}, "[10]": {"system": "blackgrass (Alopecurus myosuroides)", "assay": "Test A postemergence, visual plant response rating", "outline": "as §2"}, "kochia (Kochia scoparia) [11]": {"system": "kochia (Kochia scoparia)", "assay": "Test A postemergence, visual plant response rating", "outline": "as §2"}, "corn (Zea mays)": {"system": "corn (Zea mays)", "assay": "Test A postemergence, visual plant response rating", "outline": "as §2"}, "[12]": {"system": "pigweed (Amaranthus retroflexus)", "assay": "Test A postemergence, visual plant response rating", "outline": "as §2"}, "[13]": {"system": "foxtail, giant (giant foxtail, Setaria faberii)", "assay": "Test A preemergence, visual plant response rating", "outline": "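Compared with untreated controls, treated plants received a visual injury score on a 0–100 scale around 10 days after application. The compound, in a non-phytotoxic solvent with surfactant, was given as a preemergence soil spray or postemergence at the one- to two-leaf stage.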"}, "[14]": {"system": "Italian ryegrass (Lolium multiflorum)", "assay": "Test A preemergence, visual plant response rating", "outline": "as §2"}, "[15]": {"system": "ragweed (common ragweed, Ambrosia elatior)", "assay": "Test A preemergence, visual plant response rating", "outline": "as §2"}, "[16]": {"system": "barnyardgrass (Echinochloa crus-galli)", "assay": "Test A preemergence, visual plant response rating", "outline": "as §2"}, "kochia (Kochia scoparia) [17]": {"system": "kochia (Kochia scoparia)", "assay": "Test A preemergence, visual plant response rating", "outline": "as §2"}, "[18]": {"system": "pigweed (Amaranthus retroflexus)", "assay": "Test A preemergence, visual plant response rating", "outline": "as §2"}, "[19]": {"settings": "500 g ai/ha, postemergence, 0 is no effect, 100 is complete control"}, "[20]": {"settings": "Postemergence, 125 g ai/ha, 0 to 100 scale (0 no effect, 100 complete control)"}, "[21]": {"settings": "125 g ai/ha, preemergence, 0 to 100 scale, 0 no effect, 100 complete control"}, "[22]": {"settings": "500 g ai/ha Preemergence, approx. 10 days"}}}
{"smiles": "CCCO/N=C(/c1c(O)c(C)nn(C)c1=O)c1cccc2ccccc12", "note": "[Compound 81]", "values": [{"measurement": "Plant response rating, Rice (0 to 100 scale, 0 is no effect, 100 is complete control)", "setting": "rice (Oryza sativa)", "result": 0}, {"measurement": "Plant response rating, Sedge, Umbrella (0 to 100 scale, 0 is no effect, 100 is complete control)", "setting": "[1]", "result": 0}, {"measurement": "Plant response rating, Barnyardgrass (0 to 100 scale, 0 is no effect, 100 is complete control)", "setting": "[2]", "result": 0}, {"measurement": "Plant response rating, Ducksalad (0 to 100 scale, 0 is no effect, 100 is complete control)", "setting": "[3]", "result": 0}, {"measurement": "Foxtail, Giant plant response rating (0 to 100 scale)", "setting": "[4]; [19]", "result": 80}, {"measurement": "Foxtail, Giant plant response rating", "setting": "[4]; [20]", "result": 60}, {"measurement": "Galium plant response rating (0 to 100 scale)", "setting": "[5]; [19]", "result": 90}, {"measurement": "Galium plant response rating", "setting": "[5]; [20]", "result": 80}, {"measurement": "Wheat plant response rating (0 to 100 scale)", "setting": "[6]; [19]", "result": 0}, {"measurement": "Wheat plant response rating", "setting": "[6]; [20]", "result": 0}, {"measurement": "Ryegrass, Italian plant response rating (0 to 100 scale)", "setting": "[7]; [19]", "result": 20}, {"measurement": "Ryegrass, Italian plant response rating", "setting": "[7]; [20]", "result": 30}, {"measurement": "Ragweed plant response rating (0 to 100 scale)", "setting": "[8]; [19]", "result": 90}, {"measurement": "Ragweed plant response rating", "setting": "[8]; [20]", "result": 80}, {"measurement": "Barnyardgrass plant response rating (0 to 100 scale)", "setting": "[9]; [19]", "result": 70}, {"measurement": "Barnyardgrass plant response rating", "setting": "[9]; [20]", "result": 40}, {"measurement": "Blackgrass plant response rating (0 to 100 scale)", "setting": "[10]; [19]", "result": 80}, {"measurement": "Blackgrass plant response rating", "setting": "[10]; [20]", "result": 70}, {"measurement": "Kochia plant response rating (0 to 100 scale)", "setting": "kochia (Kochia scoparia) [11]; [19]", "result": 60}, {"measurement": "Kochia plant response rating", "setting": "kochia (Kochia scoparia) [11]; [20]", "result": 40}, {"measurement": "Corn plant response rating (0 to 100 scale)", "setting": "corn (Zea mays); [19]", "result": 20}, {"measurement": "Corn plant response rating", "setting": "corn (Zea mays); [20]", "result": 20}, {"measurement": "Pigweed plant response rating (0 to 100 scale)", "setting": "[12]; [19]", "result": 90}, {"measurement": "Pigweed plant response rating", "setting": "[12]; [20]", "result": 60}, {"measurement": "Foxtail, Giant plant response rating", "setting": "[13]; [21]", "result": 60}, {"measurement": "Foxtail, Giant plant response rating (0 to 100 scale)", "setting": "[13]; [22]", "result": 100}, {"measurement": "Ryegrass, Italian plant response rating", "setting": "[14]; [21]", "result": 20}, {"measurement": "Ryegrass, Italian plant response rating (0 to 100 scale)", "setting": "[14]; [22]", "result": 50}, {"measurement": "Ragweed plant response rating", "setting": "[15]; [21]", "result": 90}, {"measurement": "Ragweed plant response rating (0 to 100 scale)", "setting": "[15]; [22]", "result": 100}, {"measurement": "Barnyardgrass plant response rating", "setting": "[16]; [21]", "result": 60}, {"measurement": "Barnyardgrass plant response rating (0 to 100 scale)", "setting": "[16]; [22]", "result": 70}, {"measurement": "Kochia plant response rating", "setting": "kochia (Kochia scoparia) [17]; [21]", "result": 10}, {"measurement": "Kochia plant response rating (0 to 100 scale)", "setting": "kochia (Kochia scoparia) [17]; [22]", "result": 10}, {"measurement": "Pigweed plant response rating", "setting": "[18]; [21]", "result": 20}, {"measurement": "Pigweed plant response rating (0 to 100 scale)", "setting": "[18]; [22]", "result": 100}]}
